# Entries after “also recorded” stand apart in the source; their conditions may differ. Read-outs that look alike come from different tables or passages of the source. Marks after values point to notes of the source that are not given here.
# Key:
# [1] = tested on: adult patients with severe AD; assay: 16-week randomized placebo-controlled trial of dupilumab + TCS in adults with severe AD not adequately controlled with or intolerant to cyclosporine A (efficacy and safety); settings: for % change from baseline in SCORAD / % change in baseline in weekly average of peak daily pruritus NRS / % patients with EASI-75 / % patients with IGA 0 or 1 and reduction from baseline of ≥2 points / Change from baseline in % BSA / Change from baseline in DLQI / Change from baseline in HADS / Change from baseline in POEM / % patients with EASI-75 for patients with prior CSA use / % patients with reduction of weekly average peak daily pruritus NRS ≥4 from baseline: week 16; for % patients with EASI-75 for patients with prior CSA use: N = 69; for % patients with reduction of weekly average peak daily pruritus NRS ≥4 from baseline: N = 94;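 on all read-outs here: subcutaneous dosing after a 600 mg loading dose on day 1, with standardized medium-potency TCS background from day −14, compared against matching injectable placebo arm, 1:1:1 randomization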
# Source text: The study comprises a 2-week screening period, a 2-week medium-potency TCS standardization period, a 16-week treatment period, and a 12-week safety follow up period. […] All patients receive concomitant medium-potency TCS as background concomitant therapy to reflect standard of care treatment of this severe population.
# Starting on day −14, all patients initiate a standardized TCS treatment regimen, and continue the standardized medium-potency regimen through the end of the treatment period (week 16). During the 12-week follow-up period, they may continue to receive TCS at the discretion of the investigator, for intolerable AD disease activity.
# Patients who continue to meet eligibility criteria at baseline (day 1) undergo assessments and are randomized in a 1:1:1 ratio to receive either once-weekly (qw) or every 2 week (q2w) subcutaneous (SC) injections of 300 mg dupilumab (following an SC loading dose of 600 mg on day 1), or matching injectable placebo, including the placebo for the loading dose. During weeks in which dupilumab is not administered (in the q2w regimen), patients receive injectable placebo.
# Patients receive either qw SC injections of 300 mg dupilumab (following a loading dose of 600 mg on day 1), or q2w SC injections of 300 mg dupilumab (following a loading dose of 600 mg on day 1) during the 16-week treatment period. During weeks in which dupilumab is not administered (in the q2w regimen), patients receive injectable placebo.
# The primary endpoint in the study is: the proportion of patients with Eczema Area and Severity Index (EASI) 75 (≥75% improvement from baseline) at week 16.
# ⋅ Proportion of patients with EASI 75 (75% improvement from baseline) at week 16 for patients with prior CSA use; ⋅ Proportion of patients with IGA 0 or 1 (on a 5-point scale) and a reduction from baseline of points at week 16; ⋅ Percent change from baseline to week 16 in the pruritus numerical rating scale (NRS); ⋅ Proportion of patients with improvement (reduction) of pruritus NRS at week 16; ⋅ Percent change from baseline to week 16 in the EASI score; ⋅ Change from baseline to week 16 in percent body surface area (BSA); ⋅ Percent change from baseline to week 16 in the SCORing Atopic Dermatitis (SCORAD); ⋅ Proportion of patients with SCORAD 50 (≥50% improvement from baseline) at week 16; ⋅ Percent change from baseline to week 16 in the Global Individual Signs Score (GISS) (erythema, infiltration/papulation, excoriations, lichenification); ⋅ Change from baseline to week 16 in the Dermatology Life Quality Index (DLQI); ⋅ Change from baseline to week 16 in the Patient Oriented Eczema Measure (POEM); ⋅ Change from baseline to week 16 in the Hospital Anxiety and Depression Scale (HADS); ⋅ Percent change from baseline to week 2 in the pruritus NRS; ⋅ Mean weekly dose of TCS through week 16
# A variety of parameters are collected during the study to assess efficacy/effectiveness of dupilumab including measures of AD severity, use of concomitant treatment for AD, and patient reported measures of AD symptoms and QOL. Efficacy is assessed using pruritus NRS, pruritus categorical scale, POEM, HADS, DLQI, the European Quality of Life-5 Dimensions (EQ-5D), Patient Global Assessment of Disease, Patient Global Assessment of Treatment, Asthma Control Questionnaire (ACQ-5), the Sino-Nasal Outcome Test (SNOT-22), assessment of sick leave/missed school days, IGA, EASI, BSA of involvement of AD, GISS and SCORAD.
# [2] = tested on: adults with moderate-to-severe AD; settings: for decrease in mean EASI (SD) score: 600 mg on Day 8, then 300 mg weekly
# Protocol: (§1) Subcutaneous dupilumab was administered as a 600 mg loading dose on Day 8, followed by a weekly dose of 300 mg from Day 15 to Day 50. PK parameters included Geometric Mean Ratios (GMR) of AUClast (area under the plasma concentration-time curve from time zero to the time of the last quantifiable concentration) and Cmax (maximum observed plasma concentration) measured at Day 1 and Day 36, while efficacy assessments included changes in Eczema Area and Severity Index (EASI) scores (scale 0-72).
# CYP3A = assay: Effect of dupilumab on PK of CYP substrate cocktail: midazolam; settings: 600 mg loading dose, then 300 mg weekly
# Protocol: as §1
# [3] = tested on: adults with moderate-to-severe atopic dermatitis; assay: Phase 3 open-label trial: dupilumab-naïve vs retreated patients (treatment interruption); settings: for adverse events/100 patient years: to Wk52; for decrease in peak pruritus NRS score from baseline of parent study / patients who achieved EASI-75 (from baseline of parent study) / patients with Investigator's Global Assessment score of 0 or 1: Wk52
# Protocol: This Example presents an interim analysis of an ongoing multicenter, open-label trial (NCT01949311) of dupilumab treatment for up to 3 yrs. Adults with moderate-to-severe atopic dermatitis (AD) were enrolled after participation in prior dupilumab trials. Safety and efficacy at Week [Wk] 52 for dupilumab naïve (previously unexposed) and retreated (>13 Wk gap between parent and open-label study) patients were evaluated.
# [4] = Functional dupilumab concentrations in serum, two 16-week phase 3 monotherapy studies; assay type: in vivo, human; settings: for mean functional concentration of dupilumab in serum: monotherapy
# Protocol: The studies were multicenter, randomized, double-blind, placebo-controlled studies of subcutaneously administered dupilumab in 1379 adult patients; each had duration of 16 weeks (NCT02277743 and NCT02277769). Patients were randomized 1:1:1 to placebo, dupilumab 300 mg every week (qw), and dupilumab 300 mg every 2 weeks (q2w); patients randomized to dupilumab received a loading dose of 600 mg. Presented here are functional dupilumab concentrations measured in serum from blood samples at various pharmacokinetic time-points and analyzed using descriptive statistics.
# [5] = 300 mg dupilumab q2w + TCS (N = 107), 16-week treatment period
# [6] = 300 mg dupilumab q2w + TCS, Week 16
# [7] = expected at the end of the study period
substance,measurement,setting,value
"dupilumab: fully human anti-IL-4R antibody; heavy chain SEQ ID NO: 9, light chain SEQ ID NO: 10","DLQI score, mean change from baseline to Week 16 (±SE)",[1]; 300 mg dupilumab q2w + TCS,−9.7 (0.64)***^
same,DLQI score: Proportion of Patients with ≥4-point improvement at Week 16,[1]; 300 mg dupilumab q2w + TCS,85 (79.4)*** %
same,"POEM score, mean change from baseline to Week 16 (±SE)",[1]; 300 mg dupilumab q2w + TCS,−11.7 (0.68)***
same,POEM score: Proportion of patients with ≥4-point improvement at Week 16,[1]; 300 mg dupilumab q2w + TCS,89 (83.2)*** %
same,Proportion of patients with DLQI 0 or 1 at Week 16,[1]; 300 mg dupilumab q2w + TCS,32 (29.9)** %
same,"Atopic dermatitis (AE), n (%)",[1]; [5],(7.5) %
same,"Conjunctivitis allergic, n (%)",[1]; [5],(15.0) %
same,"Conjunctivitis, n (%)",[1]; [5],(11.2) %
same,"Headache, n (%)",[1]; [5],(9.3) %
same,"Nasopharyngitis, n (%)",[1]; [5],(20.6) %
same,"Number of patients with TEAEs, n (%)",[1]; [5],(72.0) %
same,"Rhinitis allergic, n (%)",[1]; [5],(6.5) %
same,"DLQI: Proportion of patients reporting “no impact” or “little impact”: Affected social, leisure activity",[1]; [6],(91.6)*** %
same,DLQI: Proportion of patients reporting “no impact” or “little impact”: Caused any sexual difficulties,[1]; [6],(93.5)*** %
same,"DLQI: Proportion of patients reporting “no impact” or “little impact”: How embarrassed, self-conscious",[1]; [6],(86.9)*** %
same,"DLQI: Proportion of patients reporting “no impact” or “little impact”: How itchy, sore, painful, stinging",[1]; [6],(83.2)*** %
same,DLQI: Proportion of patients reporting “no impact” or “little impact”: How much a problem is treatment,[1]; [6],(89.7)*** %
same,DLQI: Proportion of patients reporting “no impact” or “little impact”: Influenced clothes you wear,[1]; [6],(84.1)*** %
same,"DLQI: Proportion of patients reporting “no impact” or “little impact”: Interfered shopping, home, yard",[1]; [6],(93.5)*** %
same,DLQI: Proportion of patients reporting “no impact” or “little impact”: Made it difficult to do any sports,[1]; [6],(90.7)*** %
same,DLQI: Proportion of patients reporting “no impact” or “little impact”: Prevented/problem at working or studying,[1]; [6],(91.6)*** %
same,"DLQI: Proportion of patients reporting “no impact” or “little impact”: Problem partner, friends, relative",[1]; [6],(95.3)*** %
same,POEM: Proportion of patients reporting ‘no days’ or ‘1-2 days’: Last week days been weeping/oozing,[1]; [6],(87.9)*** %
same,POEM: Proportion of patients reporting ‘no days’ or ‘1-2 days’: Last week days skin been bleeding,[1]; [6],(84.1)*** %
same,POEM: Proportion of patients reporting ‘no days’ or ‘1-2 days’: Last week days skin been cracked,[1]; [6],(75.7)*** %
same,POEM: Proportion of patients reporting ‘no days’ or ‘1-2 days’: Last week days skin been flaking off,[1]; [6],(65.4)*** %
same,POEM: Proportion of patients reporting ‘no days’ or ‘1-2 days’: Last week days skin been itchy,[1]; [6],(45.8)*** %
same,POEM: Proportion of patients reporting ‘no days’ or ‘1-2 days’: Last week days skin felt dry or rough,[1]; [6],(59.8)*** %
same,POEM: Proportion of patients reporting ‘no days’ or ‘1-2 days’: Last week nights sleep been disturbed,[1]; [6],(83.2)*** %
same,"SCORAD VAS sleep loss, LS mean percent change from baseline to Week 16 (±SE)","[1]; 300 mg dupilumab q2w + TCS, n = 98",−61.2 (34.38)* percent
same,"SCORAD VAS sleep loss, LS mean change from baseline to Week 16 (±SE)","[1]; 300 mg dupilumab q2w + TCS, n = 106",−3.0 (0.25)***^
same,Pruritus NRS: Proportion of patients with ≥3-point improvement at Week 16,"[1]; 300 mg dupilumab q2w + TCS, patients with baseline peak pruritus NRS ≥3",56/99 (56.6)*** %
same,Pruritus NRS: Proportion of patients with ≥4-point improvement at Week 16,"[1]; 300 mg dupilumab q2w + TCS, patients with baseline peak pruritus NRS ≥4",43/94 (45.7)*** %
same,deaths during the study,[1]; all treatment groups,No deaths
same,skin infections vs placebo,[1]; combined dupilumab-treated groups,fewer skin infections
same,% change in EASI score from baseline to week 16,[1]; dupilumab 300 mg q2w + TCS,−79.8%
same,Mean weekly dose of TCS use during the treatment period,[1]; dupilumab 300 mg q2w + TCS,15.0
same,% change from baseline in SCORAD,[1]; dupilumab 300 mg q2w + TCS,−58.3%
same,% change in baseline in weekly average of peak daily pruritus NRS,[1]; dupilumab 300 mg q2w + TCS,−53.9%
same,% patients with EASI-75,[1]; dupilumab 300 mg q2w + TCS,62.6%
same,% patients with IGA 0 or 1 and reduction from baseline of ≥2 points,[1]; dupilumab 300 mg q2w + TCS,40.2%
same,Change from baseline in % BSA,[1]; dupilumab 300 mg q2w + TCS,−39.2 % BSA
same,Change from baseline in DLQI,[1]; dupilumab 300 mg q2w + TCS,−9.6
same,Change from baseline in HADS,[1]; dupilumab 300 mg q2w + TCS,−6.1
same,Change from baseline in POEM,[1]; dupilumab 300 mg q2w + TCS,−11.9
same,% patients with EASI-75 for patients with prior CSA use,[1]; dupilumab 300 mg q2w + TCS,58.0%
same,% patients with reduction of weekly average peak daily pruritus NRS ≥4 from baseline,[1]; dupilumab 300 mg q2w + TCS,45.7%
same,% change in EASI score from baseline to week 16,[1]; dupilumab 300 mg qw + TCS,−78.2%
same,Mean weekly dose of TCS use during the treatment period,[1]; dupilumab 300 mg qw + TCS,17.5
same,% change from baseline in SCORAD,[1]; dupilumab 300 mg qw + TCS,−62.4%
same,% change in baseline in weekly average of peak daily pruritus NRS,[1]; dupilumab 300 mg qw + TCS,−51.7%
same,% patients with EASI-75,[1]; dupilumab 300 mg qw + TCS,59.1%
same,% patients with IGA 0 or 1 and reduction from baseline of ≥2 points,[1]; dupilumab 300 mg qw + TCS,39.1%
same,Change from baseline in % BSA,[1]; dupilumab 300 mg qw + TCS,−37.5 % BSA
same,Change from baseline in DLQI,[1]; dupilumab 300 mg qw + TCS,−8.9
same,Change from baseline in HADS,[1]; dupilumab 300 mg qw + TCS,−5.2
same,Change from baseline in POEM,[1]; dupilumab 300 mg qw + TCS,−11.4
same,% patients with EASI-75 for patients with prior CSA use,[1]; dupilumab 300 mg qw + TCS,56.5%
same,% patients with reduction of weekly average peak daily pruritus NRS ≥4 from baseline,[1]; dupilumab 300 mg qw + TCS,40.4%
same,Injection site reactions vs placebo,"[1]; dupilumab groups, higher rate in 300 mg qw than 300 mg q2w, no severe ISRs",more common
same,tolerability / safety profile,"[1]; dupilumab plus concomitant TCS, 16-week treatment period",generally well tolerated
same,incidence of conjunctivitis vs placebo,"[1]; dupilumab-treated groups, more events in 300 mg Q2W than 300 mg QW",higher incidence
same,improvement in at least one AD-associated parameter as compared to placebo,[1]; [7],significant improvement
same,less TCS used than placebo,[1]; [7],up to 50%
same,Serious adverse events,[1]; in each treatment group,2 events
same,decrease in mean EASI (SD) score,[2]; Day 35,59.3% (37.6)
same,decrease in mean EASI (SD) score,[2]; Day 50,87.2% (13.4)
same,patients with at least one adverse event (AE),[2]; in vivo,3 patients
same,serious AE leading to treatment discontinuation (systemic inflammatory response syndrome),[2]; in vivo,1
same,effect of dupilumab on the PK of midazolam / activity of CYP3A,CYP3A,no meaningful effect; also recorded: does not have a meaningful effect
same,serious AEs/100PY,[3]; dupilumab-naïve patients,11.7 serious AEs/100PY
same,treatment discontinuations due to AEs,[3]; dupilumab-naïve patients,2.6%
same,adverse events/100 patient years,[3]; dupilumab-naïve patients (n=116),432.5 AEs/100PY
same,deaths,[3]; naïve and retreated patients,no deaths
same,decrease in peak pruritus NRS score from baseline of parent study,[3]; naïve patients,64.9%
same,patients who achieved EASI-75 (from baseline of parent study),[3]; naïve patients,73.3%
same,patients with Investigator's Global Assessment score of 0 or 1,[3]; naïve patients,49.1%
same,serious AEs/100PY,[3]; retreated patients,5.4 serious AEs/100PY
same,treatment discontinuations due to AEs,[3]; retreated patients,2.8%
same,adverse events/100 patient years,[3]; retreated patients (>13 Wk gap; n=290),371.0 AEs/100PY
same,decrease in peak pruritus NRS score from baseline of parent study,[3]; retreated patients,60.6%
same,patients who achieved EASI-75 (from baseline of parent study),[3]; retreated patients,80.7%
same,patients with Investigator's Global Assessment score of 0 or 1,[3]; retreated patients,50.7%
same,ratio (qw:q2w) of mean functional concentrations,[4]; Week 16,2.4
same,mean functional concentration of dupilumab in serum,"[4]; dupilumab 300 q2w (600 mg loading dose), Week 16",~75 mg/L
same,mean functional concentration of dupilumab in serum,"[4]; dupilumab 300 qw (600 mg loading dose), Week 16",180 mg/L
same,share of the Week 12 Ctrough reached by Week 4,"[4]; q2w dose, 600 mg loading dose",~80%
same,share of the Week 12 Ctrough reached by Week 4,[4]; qw dose,~67%
